This is an account of results in patent publication US10189805B2, “Metabolism probes for therapy and diagnosis” (Vanderbilt University, priority 2014, dated 2019).

This assay has as its target ASCT2 (Homo sapiens (Human), UniProt Q15758). Put plainly: 3H-glutamine uptake inhibition in live HEK-293 cells. Format: cell-based. Particulars: for IC50: inhibition of 3H-glutamine (500 nM) uptake, HEK293 cells, 15 min at 37° C., pH 6.0; for potency compared with GPNA (in words): 3H-glutamine uptake, HEK-293 cells. From the text:
Initial compound libraries focused on 2, 3, and 4 substituted Nγ-glutamylanilides with aryl, alicyclic, and heterocyclic substitutions. To evaluate the biological activity, compounds were initially screened at a single concentration for their ability to inhibit ^3H-glutamine uptake in live HEK-293 cells, an established model suitable for evaluating ASCT2 activity. […] The present inventors prioritized the 2-substitution as a determinant of ASCT2 activity among this series.
The glutamine uptake assays in HEK293 cells were carried out in 96 well plates (CulturPlate-96, Perkin Elmer). Cells were plated at a density of 35,000 cells per well 24 hours prior to carrying out the assay. Each set of conditions is carried out in triplicate. The wells are washed three times with 100 uL of assay buffer at pH 6.0 (containing 137 mM NaCl, 5.1 mM KCl, 0.77 mM KH2PO4, 0.71 mM MgSO4.7H2O, 1.1 mM CaCl2, 10 mM D-glucose, and 10 mM HEPES). […] (500 nM) in the same buffer is added along with inhibitor and allowed to incubate for 15 min at 37° C. Following incubation, the H-glutamine/inhibitor is removed and the cells are washed three times with buffer. The cells are then lysed by the addition of 50 uL 1M NaOH. 150 uL of scintillation fluid (Microscint 40, Perkin Elmer) is added and the plates are counted on a scintillation counter (Topcount, Perkin Elmer).

Chain of ASCT2 (Q15758 whole entry): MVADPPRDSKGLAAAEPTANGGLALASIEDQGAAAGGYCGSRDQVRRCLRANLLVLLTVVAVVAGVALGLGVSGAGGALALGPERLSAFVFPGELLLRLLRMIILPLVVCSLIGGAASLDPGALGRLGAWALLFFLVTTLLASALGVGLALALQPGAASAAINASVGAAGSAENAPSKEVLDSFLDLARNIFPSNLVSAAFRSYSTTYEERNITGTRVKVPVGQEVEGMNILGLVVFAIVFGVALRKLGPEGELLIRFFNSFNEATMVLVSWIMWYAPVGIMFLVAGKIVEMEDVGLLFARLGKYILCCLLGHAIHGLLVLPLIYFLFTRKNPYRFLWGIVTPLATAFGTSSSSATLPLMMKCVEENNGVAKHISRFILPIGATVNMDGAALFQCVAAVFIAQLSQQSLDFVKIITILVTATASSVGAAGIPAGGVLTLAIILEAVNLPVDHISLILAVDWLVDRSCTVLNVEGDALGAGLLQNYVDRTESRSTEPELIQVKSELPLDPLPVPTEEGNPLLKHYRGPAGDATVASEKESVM

Turning to `N[C@@H](CCC(=O)Nc1ccc([N+](=O)[O-])cc1)C(=O)O` [Compound 1, L-γ-glutamyl-p-nitroanilide, reference compound], the IC50 is 954 µM.
Take `N[C@@H](CCC(=O)Nc1ccccc1-c1nc2ccccc2s1)C(=O)O` [Compound 4, N^5-(2-(benzo[d]thiazol-2-yl)phenyl)-L-glutamine]: the “potency compared with GPNA (in words)” value was “significantly greater potency than GPNA” and the IC50 was 436 µM.
As for `N[C@@H](CCC(=O)Nc1ccccc1N1CCCCC1)C(=O)O` [Compound 12], the IC50 was found to be 776 µM.
Still for that read-out and setting: under `N[C@@H](CCC(=O)Nc1ccccc1CCc1ccncc1)C(=O)O` [Compound 16] stands 832 µM; under `N[C@@H](CCC(=O)NCc1ccccc1CS(=O)(=O)N1CCOCC1)C(=O)O` [Compound 19], 677 µM.
Turning to `CN1CCN(Cc2ccccc2CNC(=O)CC[C@H](N)C(=O)O)CC1` [Compound 20, N5-(2-((4-methylpiperazin-1-yl)methyl)benzyl)-L-glutamine], the “potency compared with GPNA (in words)” value is on record as “significantly greater potency than GPNA” and the midpoint of inhibition, the IC50, lay at 697 µM.

As a reminder, the IC50 is the concentration that gives 50% inhibition. A lower IC50 goes with greater potency.
